Data published in patent US20200055839A1 (priority 2017, published 2020).

Each compound was assayed on NL-RLuc virus (assay: Inhibition of HIV replication (NL-RLuc virus, luciferase readout in MT-2 cells)). Conditions: Human immunodeficiency virus 1, MT2, 120 h, MT-2 cells infected with NL-RLuc virus, 5 days of incubation, 10% FBS, at least 2 experiments.
Type: cell-based
In short: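 EC50 derived via median effect equation from at least 2 experiments, using luciferase expression as virus-growth readout. Replication-competent NL-RLuc reporter virus (nef partly replaced by Renilla luciferase) infected MT-2 cells with serial compound dilutions; 5-day incubation in RPMI 1640 plus 10% FBS.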

| SMILES | EC50 [nM] |
| --- | --- |
| Cc1nc(-n2cccn2)c(-c2ccc(OCCc3ccc(F)cc3)cc2)c(N2CCC(C)(C)CC2)c1[C@H](OC(C)(C)C)C(=O)O [Example 62, (S)-2-(tert-Butoxy)-2-(4-(4,4-dimethylpiperidin-1-yl)-5-(4-(4-fluorophenethoxy)phenyl)-2-methyl-6-(1H-pyrazol-1-yl)pyridin-3-yl)acetic acid] | 3 |
| Cc1ncc(-c2ccc(OC(C)C)c(F)c2F)c(N2CCC(C)(C)CC2)c1[C@H](OC(C)(C)C)C(=O)O [Example 169, (2S)-2-(tert-Butoxy)-2-{5-[2,3-difluoro-4-(propan-2-yloxy)phenyl]-4-(4,4-dimethylpiperidin-1-yl)-2-methylpyridin-3-yl}acetic acid] | 7 |
| Cc1ncc(-c2cnc(NCC(C)C)c(F)c2)c(N2CCC(C)(C)CC2)c1[C@H](OC(C)(C)C)C(=O)O [Example 415, (S)-2-(tert-Butoxy)-2-(4-(4,4-dimethylpiperidin-1-yl)-5′-fluoro-6′-(isobutylamino)-6-methyl-[3, 3′-bipyridin]-5-yl)acetic acid] | 2 |
| COc1ccc(COc2ccc(-c3cnc(C)c([C@H](OC(C)(C)C)C(=O)O)c3N3CCC(C)(C)CC3)nc2)cc1 [Example 339, (2S)-2-(tert-butoxy)-2-[4′-(4,4-dimethylpiperidin-1-yl)-5-[(4-methoxyphenyl)methoxy]-6′-methyl-[2,3′-bipyridine]-5′-yl]acetic acid] | 2 |
| CC1(C)CCN(c2c(-c3ccc(OCCc4ccc(F)cc4)cn3)cnc(Cl)c2[C@H](OC(C)(C)C)C(=O)O)CC1 [Example 225, (2S)-2-(tert-Butoxy)-2-[6′-chloro-4′-(4,4-dimethylpiperidin-1-yl)-5-[2-(4-fluorophenyl)ethoxy]-[2, 3′-bipyridine]-5′-yl]acetic acid] | 1 |
| CCCCOc1ncc(-c2cnc(C)c([C@H](OC(C)(C)C)C(=O)O)c2N2CCC(C)(C)CC2)cc1F [Example 377, (2S)-2-(tert-butoxy)-2-[6′-butoxy-4-(4,4-dimethylpiperidin-1-yl)-5′-fluoro-6-methyl-[3,3′-bipyridine]-5-yl]acetic acid] | 4 |
| CCCCOc1ccc(-c2cnc(C)c([C@H](OC(C)(C)C)C(=O)O)c2N2CCC(C)(C)CC2)cn1 [Example 426, (S)-2-tert-Butoxy-2-(6′-butoxy-4-(4,4-dimethylpiperidin-1-yl)-6-methyl-3, 3′-bipyridin-5-yl)acetic acid] | 0.3 |
| Cc1ncc(-c2ccc(OCCc3ccc(F)cc3F)cn2)c(N2CCC(C)(C)CC2)c1[C@H](OC(C)(C)C)C(=O)O [Example 306, (2S)-2-(tert-butoxy)-2-{5-[2-(2,4-difluorophenyl)ethoxy]-4′-(4,4-dimethylpiperidin-1-yl)-6′-methyl-[2,3′-bipyridine]-5′-yl}acetic acid] | 0.6 |
| Cc1ncc(-c2ccc(/C=C\C(C)C)nc2)c(N2CCC(C)(C)CC2)c1[C@H](OC(C)(C)C)C(=O)O [Example 422, (S,Z)-2-(tert-Butoxy)-2-(4-(4,4-dimethylpiperidin-1-yl)-6-methyl-6′-(3-methylbut-1-en-1-yl)-[3, 3′-bipyridin]-5-yl)acetic acid] | 10 |
| COc1c(F)cc(-c2c(CO)nc(C)c([C@H](OC(C)(C)C)C(=O)O)c2N2CCC(C)(C)CC2)cc1F [Example 139, (S)-2-(tert-Butoxy)-2-(5-(3,5-difluoro-4-methoxyphenyl)-4-(4,4-dimethylpiperidin-1-yl)-6-(hydroxymethyl)-2-methylpyridin-3-yl)acetic acid] | 27 |
| Cc1ncc(-c2ccc(COc3ccccc3)cn2)c(N2CCC(C)(C)CC2)c1[C@H](OC(C)(C)C)C(=O)O [Example 272, (S)-2-(tert-Butoxy)-2-(4′-(4,4-dimethylpiperidin-1-yl)-6′-methyl-5-(phenoxymethyl)-[2, 3′-bipyridin]-5′-yl)acetic acid] | 2 |
| Cc1ncc(-c2ccc(OCCc3ccc(F)cc3)cc2F)c(N2CCC(C)(C)CC2)c1[C@H](OC(C)(C)C)C(=O)O [Example 123, (S)-2-(tert-Butoxy)-2-(4-(4,4-dimethylpiperidin-1-yl)-5-(2-fluoro-4-(4-fluorophenethoxy)phenyl)-2-methylpyridin-3-yl)acetic acid] | 2 |
| Cc1ncc(-c2cccc(Cl)c2)c(N2CCC(C)(C)CC2)c1[C@H](OC(C)(C)C)C(=O)O [Example 143, (2S)-2-(tert-Butoxy)-2-[5-(3-chlorophenyl)-4-(4,4-dimethylpiperidin-1-yl)-2-methylpyridin-3-yl]acetic acid] | 4 |
| Cc1ncc(-c2ccc(OCCc3cccc(F)c3)nc2)c(N2CCC(C)(C)CC2)c1[C@H](OC(C)(C)C)C(=O)O [Example 255, (S)-2-(tert-Butoxy)-2-(4-(4,4-dimethylpiperidin-1-yl)-6′-(3-fluorophenethoxy)-6-methyl-[3,3′-bipyridin]-5-yl)acetic acid] | 0.8 |
| Cc1ccc(F)cc1CCOc1ncc(-c2cnc(C)c([C@H](OC(C)(C)C)C(=O)O)c2N2CCC(C)(C)CC2)cc1F [Example 401, (2S)-2-(tert-butoxy)-2-[4-(4,4-dimethylpiperidin-1-yl)-5′-fluoro-6′-[2-(5-fluoro-2-methylphenyl)ethoxy]-6-methyl-[3,3′-bipyridine]-5-yl]acetic acid] | 2 |
| Cc1cc(F)c(F)c(-c2cnc(C)c([C@H](OC(C)(C)C)C(=O)O)c2N2CCC(C)(C)CC2)c1 [Example 170, (2S)-2-(tert-Butoxy)-2-[5-(2,3-difluoro-5-methylphenyl)-4-(4,4-dimethylpiperidin-1-yl)-2-methylpyridin-3-yl]acetic acid] | 19 |
| Cc1ncc(-c2cnc(OCCc3ccc(F)cc3)cn2)c(N2CCC(C)(C)CC2)c1[C@H](OC(C)(C)C)C(=O)O [Example 16, (S)-2-(tert-Butoxy)-2-(4-(4,4-dimethylpiperidin-1-yl)-5-(5-(4-fluorophenethoxy)pyrazin-2-yl)-2-methylpyridin-3-yl)acetic acid] | 2 |
| CCC(CC)COc1ccc(-c2cnc(C)c([C@H](OC(C)(C)C)C(=O)O)c2N2CCC(C)(C)CC2)nc1 [Example 359, (2S)-2-(tert-butoxy)-2-[4′-(4,4-dimethylpiperidin-1-yl)-5-(2-ethylbutoxy)-6′-methyl-[2,3′-bipyridine]-5′-yl]acetic acid] | 2 |
| Cc1ncc(-c2ccc(C(F)(F)CC(C)C)nc2)c(N2CCC(C)(C)CC2)c1[C@H](OC(C)(C)C)C(=O)O [Example 430, (S)-2-tert-Butoxy-2-(6′-(1,1-difluoro-3-methylbutyl)-4-(4,4-dimethylpiperidin-1-yl)-6-methyl-3, 3′-bipyridin-5-yl)acetic acid] | 16 |
| Cc1cc(-c2c(N)nc(C)c([C@H](OC(C)(C)C)C(=O)O)c2N2CCC(C)(C)CC2)cc(C)c1OCCc1ccc(F)cc1 [Example 61, (S)-2-(6-Amino-4-(4,4-dimethylpiperidin-1-yl)-5-(4-(4-fluorophenethoxy)-3,5-dimethylphenyl)-2-methylpyridin-3-yl)-2-(tert-butoxy)acetic acid] | 11 |
| COc1c(F)cc(-c2c(CNCC3CCOCC3)nc(Cl)c([C@H](OC(C)(C)C)C(=O)O)c2N2CCC(C)(C)CC2)cc1F [Example 203, (S)-2-(tert-Butoxy)-2-(2-chloro-5-(3,5-difluoro-4-methoxyphenyl)-4-(4,4-dimethylpiperidin-1-yl)-6-((((tetrahydro-2H-pyran-4-yl)methyl)amino)methyl)pyridin-3-yl)acetic acid] | 7 |
| Cc1ncc(-c2ccc(OCCc3c(Cl)cccc3Cl)cn2)c(N2CCC(C)(C)CC2)c1[C@H](OC(C)(C)C)C(=O)O [Example 297, (2S)-2-(tert-butoxy)-2-{5-[2-(2,6-dichlorophenyl)ethoxy]-4′-(4,4-dimethylpiperidin-1-yl)-6′-methyl-[2,3′-bipyridine]-5′-yl}acetic acid] | 1 |
| COc1ccc(-c2cnc(C)c([C@H](OC(C)(C)C)C(=O)O)c2N2CCC(C)(C)CC2)c(F)c1 [Example 181, (2S)-2-(tert-Butoxy)-2-[4-(4,4-dimethylpiperidin-1-yl)-5-(2-fluoro-4-methoxyphenyl)-2-methylpyridin-3-yl]acetic acid] | 6 |
| COc1c(F)ccc(-c2cnc(C)c([C@H](OC(C)(C)C)C(=O)O)c2N2CCC(C)(C)CC2)c1F [Example 171, (2S)-2-(tert-Butoxy)-2-[5-(2,4-difluoro-3-methoxyphenyl)-4-(4,4-dimethylpiperidin-1-yl)-2-methylpyridin-3-yl]acetic acid] | 5 |
| Cc1ncc(-c2ccc(OCCC(C)C)nc2)c(N2CCC(C)(C)CC2)c1[C@H](OC(C)(C)C)C(=O)O [Example 427, (S)-2-tert-Butoxy-2-(4-(4,4-dimethylpiperidin-1-yl)-6′-(isopentyloxy)-6-methyl-3, 3′-bipyridin-5-yl)acetic acid] | 2 |
| Cc1ncc(-c2ccc(OCCc3cc(F)cc(F)c3)cn2)c(N2CCC(C)(C)CC2)c1[C@H](OC(C)(C)C)C(=O)O [Example 323, (2S)-2-(tert-butoxy)-2-{5-[2-(3,5-difluorophenyl)ethoxy]-4′-(4,4-dimethylpiperidin-1-yl)-6′-methyl-[2,3′-bipyridine]-5′-yl}acetic acid] | 1 |

Same assay, conditions: MT-2 cells infected with NL-RLuc virus, 5 days of incubation, 10% FBS, at least 2 experiments

| SMILES | EC50 [nM] |
| --- | --- |
| Cc1nc(Nc2ncccn2)c(-c2ccc(OCCc3ccc(F)cc3)c(F)c2)c(N2CCC(C)(C)CC2)c1[C@H](OC(C)(C)C)C(=O)O [Example 69, (S)-2-(tert-Butoxy)-2-(4-(4,4-dimethylpiperidin-1-yl)-5-(3-fluoro-4-(4-fluorophenethoxy)phenyl)-2-methyl-6-(pyrimidin-2-ylamino)pyridin-3-yl)acetic acid] | 3 |
| Cc1nc(N)c(-c2ccc(OCCc3ccc(F)cc3)c(F)c2F)c(N2CCC(C)(C)CC2)c1[C@H](OC(C)(C)C)C(=O)O (single isomer, unassigned) [Example 71] | 2 |
